Measurements: ChEMBL document CHEMBL1150456, “Synthesis of 2-O-heteroaroyl taxanes: evaluation of microtubule assembly promotion and cytotoxicity” (1995)

What was measured:
[1] = test system: B16; assay: Concentration which produces 50% inhibition of proliferation of B16 melanoma cytotoxic cells after 40h of incubation was tested in vitro relative to paclitaxel (1); type: functional, Mus musculus
[2] = molecular target: Tubulin (Bos taurus) (UniProt Q6B856+Q862L2+Q862F3); assay: Concentration which causes polymerization of 50% of the tubulin present in 15 min at 37 degree C was tested in vitro relative to paclitaxel (1); type: functional

Row | Ratio [2] | Structure (SMILES) | Ratio [1]
1 | 2.6 | CC(=O)O[C@H]1C(=O)[C@]2(C)[C@@H](O)CC3OC[C@@]3(OC(C)=O)[C@H]2[C@H](OC(=O)c2cccn2C)[C@]2(O)C[C@H](OC(=O)[C@H](O)[C@@H](NC(=O)c3ccccc3)c3ccccc3)C(C)=C1C2(C)C (stereo partly drawn) | 2.6
2 | 1.1 | CC(=O)O[C@H]1C(=O)[C@]2(C)[C@@H](O)CC3OC[C@@]3(OC(C)=O)[C@H]2[C@H](OC(=O)c2cccs2)[C@]2(O)C[C@H](OC(=O)[C@H](O)[C@@H](NC(=O)c3ccccc3)c3ccccc3)C(C)=C1C2(C)C (stereo partly drawn) | 3.8
3 | 4 | CC(=O)O[C@H]1C(=O)[C@]2(C)[C@@H](O)CC3OC[C@@]3(OC(C)=O)[C@H]2[C@H](OC(=O)c2cccnc2)[C@]2(O)C[C@H](OC(=O)[C@H](O)[C@@H](NC(=O)c3ccccc3)c3ccccc3)C(C)=C1C2(C)C (stereo partly drawn) | >36
4 | 2.8 | CC(=O)O[C@H]1C(=O)[C@]2(C)[C@@H](O)CC3OC[C@@]3(OC(C)=O)[C@H]2[C@H](OC(=O)c2ccccn2)[C@]2(O)C[C@H](OC(=O)[C@H](O)[C@@H](NC(=O)c3ccccc3)c3ccccc3)C(C)=C1C2(C)C (stereo partly drawn) | 8.7
5 | 7.3 | CC(=O)O[C@H]1C(=O)[C@]2(C)[C@@H](O)CC3OC[C@@]3(OC(C)=O)[C@H]2[C@H](OC(=O)c2ccncc2)[C@]2(O)C[C@H](OC(=O)[C@H](O)[C@@H](NC(=O)c3ccccc3)c3ccccc3)C(C)=C1C2(C)C (stereo partly drawn) | >36
6 | 1 | CC(=O)O[C@H]1C(=O)[C@@]2(C)[C@H]([C@H](OC(=O)c3ccccc3)[C@]3(O)C[C@H](OC(=O)[C@H](O)[C@@H](NC(=O)c4ccccc4)c4ccccc4)C(C)=C1C3(C)C)[C@]1(OC(C)=O)CO[C@@H]1C[C@@H]2O [PACLITAXEL] | 1
7 | 2.4 | CC(=O)O[C@H]1C(=O)[C@]2(C)[C@@H](O)CC3OC[C@@]3(OC(C)=O)[C@H]2[C@H](OC(=O)c2ccco2)[C@]2(O)C[C@H](OC(=O)[C@H](O)[C@@H](NC(=O)c3ccccc3)c3ccccc3)C(C)=C1C2(C)C (stereo partly drawn) | 14

Row | Structure (SMILES) | Ratio [2] | Ratio [1]
8 | CC(=O)O[C@H]1C(=O)[C@]2(C)[C@@H](O)CC3OC[C@@]3(OC(C)=O)[C@H]2[C@H](OC(=O)c2ccsc2)[C@]2(O)C[C@H](OC(=O)[C@H](O)[C@@H](NC(=O)c3ccccc3)c3ccccc3)C(C)=C1C2(C)C (stereo partly drawn) | 1.4 | 2.1
9 | CC(=O)O[C@H]1C(=O)[C@]2(C)[C@@H](O)CC3OC[C@@]3(OC(C)=O)[C@H]2[C@H](OC(=O)c2ccoc2)[C@]2(O)C[C@H](OC(=O)[C@H](O)[C@@H](NC(=O)c3ccccc3)c3ccccc3)C(C)=C1C2(C)C (stereo partly drawn) | 2.1 | 8.2
